Laboratory results: PMC4109680, “Identification and Preclinical Pharmacology of the γ-Secretase Modulator BMS-869780” (International Journal of Alzheimer's Disease, 2014)
Where two headings read alike, the source gives them in different places.

What was measured:
rat brain Aβ = test: Rat brain Aβ peptides after oral dose (4-plex immunoassay and Aβ1-x); format: in vivo; conditions: 24 hours
Protocol: (§1) IC50 determinations for Aβ1-42 and Aβ1-40 in H4-APPsw cultures in 384-well format were determined using homogeneous time-resolved fluorescence immunoassays as previously described. The principle of these assays is illustrated in Figures 1(c) and 1(d). In other experiments using H4-APPsw cultures, Aβ was quantified by ELISA; for Aβ1-42 the combination of monoclonal antibodies was 26D6 and 565-HRP; for Aβ1-40 it was TSD and 26D6-HRP, and for Aβ1-x it was 4G8 and 26D6-HRP. In some experiments a novel 4-plex Aβ electrochemiluminescence immunoassay was used (Mesoscale Discovery catalog number N45ZA-1). Briefly, the 4-plex was carried out in 96-well format, with 4 separate spots of capture antibodies in each well. The 96-well plates were prepared by the manufacturer, with spots of monoclonal antibodies for Aβ1-42, Aβ1-40, and Aβ1-38, and an additional fourth spot of streptavidin in each well. Plates were initially incubated with blocking buffer (5% BSA in phosphate buffered saline, 200 μL per well) for 2 hours at ambient temperature and then with D2A6H-biotin conjugate (50 ng/mL in 1% BSA, phosphate buffered saline, 25 μL per well) for 1 hour. Plates were then rinsed with phosphate buffered saline before addition of experimental samples for determination of Aβ1-42, Aβ1-40, Aβ1-38, and Aβ1-37 levels, following the manufacturer's instructions as for the Aβ 3-plex kit (catalog number K15148E-1). Rat brain extracts for use in the 4-plex assay were made in 0.2% diethylamine, as previously described. For detection of rat Aβ peptides in the 4-plex (Figure 5), 252Q6-sulfo-tag conjugate was used, and for detection of human Aβ peptides from cell cultures 6E10-sulfo-tag conjugate was used. For Aβ in transiently transfected PS1/PS2 dKO fibroblasts, Aβ1-42 was quantified using an ELISA kit (WACO), and Aβ1-40 was quantified by ELISA as described above for H4-APPsw cultures. For triple transgenic mice (3xTg; [63]), human transgenic Aβ1-42 was assayed in brain homogenates using an ELISA kit (WACO). For the rat and mouse experiments illustrated in Figures 7 and 8, brain samples were prepared by solid phase extraction, and endogenous rat brain Aβ1-42 and Aβ1-40 were quantified by ELISA as previously described for wild type mice. For brain extracts made using solid phase extraction, calibration of Aβ was relative, based on the approximately linear response of the assay in the range tested. For brain extracts made in 0.2% diethylamine, Aβ1-42, Aβ1-40, Aβ1-38, and Aβ1-37 concentrations in brain and cell culture samples were determined by fitting the results of immunoassays against calibration curves derived from a range of dilutions of the corresponding synthetic peptides on each assay plate using a quadratic curve fit (Graphpad Prizm 5.0). Aβ1-x was calibrated in the same way against synthetic Aβ1-40 peptide. Results were expressed in units of pM, corrected for sample dilution.
Rats were given oral doses of BMS-869780, and levels of brain Aβ, βCTF, and αCTF were determined 24 hours later. For comparison, BMS-698861 was dosed in a separate experiment and samples were taken 5 hours later. […] (c) Rat brain βCTF was detected by western blotting of immunoprecipitates from samples of the same rat brains used for Aβ determinations. […] (e) and (f) quantification of western blots shown in (c) and (d), respectively, expressed relative to percent of average level of CTF in vehicle-treated rats. […]

[1] = tested on: brain Aβ1-42, brain Aβ1-40, plasma Aβ1-40; test: Rat intraperitoneal dose response, brain and plasma Aβ 5 hours after dosing; format: in vivo; conditions: for IC50: Rattus norvegicus
Protocol: as §1
Figure 7 BMS-869780 dose response and evaluation of residual Aβ levels in rat brain. (a) Groups of rats received intraperitoneal (IP) injections of vehicle or BMS-869780 at doses of 100, 30, 10, 3, 1, and 0.3 mg/kg. Additional rats were dosed with GSI BMS-698861 at 30 mg/kg as a positive control for Aβ-lowering. Group sizes were seven rats for each dose of BMS-869780 and 14 rats for vehicle and GSI dose groups. Brain and plasma were harvested 5 hours after dosing. Brain Aβ1-42 (green), brain Aβ1-40 (blue), brain Aβ1-x (black), and plasma Aβ1-40 (red) were determined. Values are expressed as % relative to vehicle group mean. Whiskers represent standard error. ⊗Aβ1-x was not determined in the groups dosed at 3, 1, and 0.3 mg/kg. (b) Brain Aβ1-40 was plotted against brain Aβ1-42 for each rat dosed with BMS-869780 (black ▼) and for each rat dosed with vehicle (grey ●). Values are expressed as % relative to vehicle group mean. Whiskers represent standard error. […]

CYP3A4 mRNA = CYP3A4 mRNA expression in primary human hepatocytes; format: cell-based; conditions: two donors, relative to rifampicin 10 μM
Protocol: Figure 10 BMS-869780 caused PXR activation in vitro and lipidosis in rat liver. (a) PXR activation in the presence of BMS-869780 was evaluated in HepG2 cell cultures using a luciferase transcriptional reporter construct (●), or by assay of CYP3A4 mRNA levels in primary human hepatocyte (PHH) cultures from two individual donors (▲ and ▼). Activation in both assays is expressed as % relative to activation in the presence of rifampicin, 10 μM, in parallel cultures. (b) Liver section from vehicle-dosed rats. (c) Liver section from rats given 4 daily doses of BMS-869780 at 100 mg/kg.

[2] = 3 mg/kg IP, 5 hours after dosing

COc1cc(Nc2nc3n(n2)CCCC[C@H]3c2ccc(F)cc2)ccc1-n1cnc(Cl)c1 [BMS-869780]
rat brain Aβ1-37 and Aβ1-38 (rat brain Aβ; oral doses 1.9-235 mg/kg): increased | rat brain Aβ1-40 and Aβ1-42 (rat brain Aβ; oral doses 1.9-235 mg/kg): decreased | rat brain Aβ1-x (rat brain Aβ; oral doses): no significant decrease | sum total of brain Aβ1-40, Aβ1-42, Aβ1-38 and Aβ1-37 (rat brain Aβ; oral doses): no significant change in overall Aβ levels | plasma Aβ1-40 lowering ([1]; 0.3 mg/kg IP, 5 hours after dosing): ca. 50% | brain Aβ1-40 lowering [1, 2]: ca. 50% | brain Aβ1-42 lowering [1, 2]: ca. 50% | residual Aβ1-40 assay signal at high plasma concentrations (best fit curve) ([1]; % relative to vehicle): 11% | residual Aβ1-42 assay signal at high plasma concentrations (best fit curve) ([1]; % relative to vehicle): 29% | IC50 ([1]; ip, four-parameter fit, 95% confidence interval 44–158 nM, read-out: apparent IC50 (plasma concentration) for plasma Aβ1-40): 84 nM | IC50 ([1]; ip, four-parameter fit, 95% confidence interval 618–1053 nM, read-out: apparent IC50 (plasma concentration) for brain Aβ1-42): 807 nM | IC50 ([1]; ip, four-parameter fit, 95% confidence interval 704–1264 nM, read-out: apparent IC50 (plasma concentration) for brain Aβ1-40): 943 nM | IC50 ([1]; IP, 5 hours, read-out: concentration in plasma associated with 50% lowering of brain Aβ1-42): ~1000 nM | brain Aβ1-x levels ([1]; highest three doses (10, 30, 100 mg/kg IP), 5 hours): not affected | lowering of brain Aβ1-42 and Aβ1-40 ([1]; in mice and rats): ≥ 75% | concentrations at which CYP3A4 mRNA transcription was activated (CYP3A4 mRNA): ≥ 300 nM
